IC50 data for three molecules are collected here from article PMC12375005 (Communications Biology, 2025).

For one assay, the system named is TcCCE34. Put plainly: inhibition of alpha-naphthyl acetate hydrolysis. It counts as biochemical, Tetranychus cinnabarinus. The conditions noted are these: 3 × 10^−4 mol/L alpha-naphthyl acetate; 10 min preincubation 30 °C; 5% acetone.
The target in the next assay is T1, TcGSTm8 (Tetranychus cinnabarinus, UniProt U5YE47).
T1 sequence (U5YE47 1-227): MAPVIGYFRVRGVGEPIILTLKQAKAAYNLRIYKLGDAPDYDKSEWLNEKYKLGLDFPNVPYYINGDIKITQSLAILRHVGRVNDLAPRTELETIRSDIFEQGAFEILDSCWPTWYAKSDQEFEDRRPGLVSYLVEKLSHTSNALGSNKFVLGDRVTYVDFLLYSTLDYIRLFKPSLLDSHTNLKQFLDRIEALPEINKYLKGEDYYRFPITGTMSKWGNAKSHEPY
Put plainly: inhibition of CDNB conjugation. Format: biochemical. Conditions: 6 mM GSH; 0.6 mM CDNB; 10 min preincubation 25 °C; 5% acetone.

As usually defined, the IC50 is the midpoint of a concentration-inhibition curve. As for `CCOP(=S)(OCC)Oc1nc(Cl)c(Cl)cc1Cl` [chlorpyrifos], the IC50 worked out at 57.2 ± 7.42 µM in the assay with TcCCE34 and 1180 ± 90 µM against TcGSTm8.
In the case of `COCCOC(=O)C(C#N)(C(=O)c1ccccc1C(F)(F)F)c1ccc(C(C)(C)C)cc1` (stereo not drawn) [cyflumetofen], the IC50 was determined as 630 ± 39.8 µM in the assay on TcCCE34 and 1570 ± 110 µM against TcGSTm8.
The like results for `CC1(C)C(C(=O)OC(C#N)c2cccc(Oc3ccccc3)c2)C1(C)C` (stereo not drawn) [fenpropathrin] were, in that order, 42.5 ± 8.44 µM and 1090 ± 50 µM.
